In the Deep4Chem optical property database:

Experiment: solvent given as SMILES

**Q.** For `CC[n+]1c(-c2ccccc2)c2cc(NC(N)=O)ccc2c2ccc(NC(N)=O)cc21`, which absorption maximum (in O) is on record?
**A.** 434 nm

**Q.** With `CC1=c2c3c4cccc5cccc(c=3c(C)[n+]2[B-](F)(F)n2c(C)c3cc6c(-c7ccccc7)c7c(c(-c8ccccc8)c6cc3c21)-c1cccc2cccc-7c12)c54` as the compound, how does the absorption maximum (in ClCCl) read?
**A.** 658 nm

**Q.** With `CC(C)(C)c1ccc(-c2cc3c(-c4ccc(C(C)(C)C)cc4)c4cccc5c(-c6ccc(C(C)(C)C)cc6)cc6c(-c7ccc(C(C)(C)C)cc7)c7cccc2c7c3c6c54)cc1` as the compound, how does the absorption maximum (in ClCCl) read?
**A.** 456 nm

**Q.** For `[NH3+]c1cc([NH3+])cc(-c2nc3ccccc3s2)c1`, which absorption maximum (in O) is on record?
**A.** 315 nm

**Q.** With `c1ccc(-c2cc(-c3ccc(N(c4ccccc4)c4ccccc4)cc3)cc(-c3ccccc3)n2)cc1` as the compound, how does the absorption maximum (in CC#N) read?
**A.** 357 nm

**Q.** And the absorption maximum (in CCCCCC)?
**A.** 354 nm

**Q.** And the absorption maximum (in CCO)?
**A.** 362 nm

**Q.** What about the absorption maximum (in CO) of the same compound?
**A.** 359 nm

**Q.** And the absorption maximum (in ClCCl)?
**A.** 360 nm

**Q.** Which absorption maximum (in ClCCl) does the source give for `CC(C)(C)NC(=O)c1ccc(-c2cc3ccccc3s2)c2ccc3c4ccccc4c4ccccc4c3c12` here?
**A.** 350 nm

**Q.** With `COc1ccc(-c2c3ccccc3c3n2[B-](F)(F)[N+]2=Cc4c5ccccc5c(-c5ccc(OC)cc5)n4[B-](F)(F)[N+]2=C3)cc1` as the compound, how does the absorption maximum (in CC#N) read?
**A.** 561 nm

**Q.** What about the absorption maximum (in CCCCCC) of the same compound?
**A.** 573 nm

**Q.** What about the absorption maximum (in CN(C)C=O) of the same compound?
**A.** 569 nm

**Q.** And the absorption maximum (in Cc1ccccc1)?
**A.** 579 nm

**Q.** What about the absorption maximum (in ClCCl) of the same compound?
**A.** 571 nm

**Q.** For `CCOC(=O)c1c2c3c(cccc3c3cc4ccccc4cc13)N(C)C2=O`, which absorption maximum (in CC#N) is on record?
**A.** 398 nm

**Q.** With `Clc1ccc(-c2nc(-c3ccccc3)sc2N(c2ccccc2)c2ccccc2)cc1` as the compound, how does the absorption maximum (in ClC(Cl)Cl) read?
**A.** 366 nm

**Q.** For `CCCCN(CCCC)c1ccc(C#Cc2cc(C#Cc3ccc(N(CCCC)CCCC)cc3)c(C#Cc3ccc([N+](=O)[O-])cc3)cc2C#Cc2ccc([N+](=O)[O-])cc2)cc1`, which absorption maximum (in ClCCl) is on record?
**A.** 426 nm

**Q.** What does the source list for `O=Cc1ccc2ccc3cccc4ccc1c2c34`?
**A.** absorption maximum (in C1CCOC1): 391 nm; absorption maximum (in CC#N): 390 nm; absorption maximum (in CCCCCC): 387 nm; absorption maximum (in CCO): 389 nm; absorption maximum (in CN(C)C=O): 390 nm; absorption maximum (in CO): 389 nm; absorption maximum (in Cc1ccccc1): 391 nm; absorption maximum (in ClCCl): 392 nm

**Q.** For `CCOC(=O)c1ccc(/C=C/C2=[N+]3C(=C(c4ccccc4)c4ccc(/C=C/c5ccc(C(=O)OCC)o5)n4[B-]3(F)F)C=C2)o1`, which absorption maximum (in ClC(Cl)Cl) is on record?
**A.** 671 nm

**Q.** What does the source list for `Cc1ccc(-n2c3ccccc3c3cc(C(=C(C#N)C#N)c4ccccc4)ccc32)cc1`?
**A.** absorption maximum (in C1CCOC1): 442 nm; absorption maximum (in CC#N): 445 nm; absorption maximum (in CC(C)=O): 442 nm; absorption maximum (in CCOC(C)=O): 442 nm; absorption maximum (in CO): 447 nm; absorption maximum (in CS(C)=O): 453 nm; absorption maximum (in Cc1ccccc1): 447 nm; absorption maximum (in ClC(Cl)Cl): 458 nm

**Q.** For `CCC1=C(C)C2=C(C)c3c(C)c(-c4csc(N5CCOCC5)n4)c(C)n3[B-](F)(F)[N+]2=C1C`, which absorption maximum (in C1CCOC1) is on record?
**A.** 524 nm

**Q.** What about the absorption maximum (in C1COCCO1) of the same compound?
**A.** 524 nm

**Q.** What about the absorption maximum (in CC#N) of the same compound?
**A.** 516 nm

**Q.** What about the absorption maximum (in CC(C)O) of the same compound?
**A.** 518 nm

**Q.** And the absorption maximum (in CCO)?
**A.** 516 nm

**Q.** What about the absorption maximum (in CCOC(C)=O) of the same compound?
**A.** 520 nm

**Q.** What about the absorption maximum (in CN(C)C=O) of the same compound?
**A.** 524 nm

**Q.** And the absorption maximum (in CO)?
**A.** 514 nm

**Q.** What about the absorption maximum (in CS(C)=O) of the same compound?
**A.** 521 nm

**Q.** What about the absorption maximum (in Cc1ccccc1) of the same compound?
**A.** 527 nm

**Q.** What about the absorption maximum (in ClC(Cl)Cl) of the same compound?
**A.** 523 nm

**Q.** And the absorption maximum (in ClCCl)?
**A.** 522 nm

**Q.** For `CC1=CC(/C=C/c2ccc(C)cc2)=[N+]2C1=C(c1ccccc1)c1c(C)cc(/C=C/c3ccc(C)cc3)n1[B-]2(F)F`, which absorption maximum (in CC1CCCO1) is on record?
**A.** 631 nm

**Q.** With `c1ccc(-c2nc(-c3ccccc3)nc(-c3ccc(-n4c5ccccc5c5cc(-c6ccc7sc8ccccc8c7c6)ccc54)cc3)n2)cc1` as the compound, how does the absorption maximum (in Cc1ccccc1) read?
**A.** 370 nm

**Q.** Which absorption maximum (in C1CCOC1) does the source give for `COc1cc(-c2nnc(-c3ccc4ccc5cccc6ccc3c4c56)o2)cc(OC)c1OC` here?
**A.** 393 nm

**Q.** What about the absorption maximum (in CC1CCCCC1) of the same compound?
**A.** 392 nm

**Q.** What about the absorption maximum (in CC#N) of the same compound?
**A.** 391 nm

**Q.** What about the absorption maximum (in CCCCCC) of the same compound?
**A.** 392 nm

**Q.** And the absorption maximum (in Cc1ccccc1)?
**A.** 396 nm

**Q.** What about the absorption maximum (in ClC(Cl)Cl) of the same compound?
**A.** 396 nm

**Q.** With `N#Cc1nc2c3ccc(-n4c5ccccc5c5ccccc54)cc3c3cc(-n4c5ccccc5c5ccccc54)ccc3c2nc1C#N` as the compound, how does the absorption maximum (in Cc1ccccc1) read?
**A.** 442 nm

**Q.** For `COC(=O)c1c(NC(C)(C)C)oc(-c2ccccc2)c1C(=O)OC`, which absorption maximum (in CC#N) is on record?
**A.** 334 nm

**Q.** For `CC1(C)C(=O)C=Cc2ccc(N3CCC3)cc21`, which absorption maximum (in O) is on record?
**A.** 387 nm

**Q.** For `N#C/C(=C\c1cn(-c2ccccc2)nc1-c1ccccc1)c1nc2ccccc2s1`, which absorption maximum (in C1CCOC1) is on record?
**A.** 381 nm

**Q.** What about the absorption maximum (in C1COCCO1) of the same compound?
**A.** 381 nm

**Q.** What about the absorption maximum (in CCO) of the same compound?
**A.** 380 nm

**Q.** What about the absorption maximum (in CCOC(C)=O) of the same compound?
**A.** 380 nm

**Q.** And the absorption maximum (in CN(C)C=O)?
**A.** 388 nm

**Q.** And the absorption maximum (in CO)?
**A.** 377 nm

**Q.** And the absorption maximum (in CS(C)=O)?
**A.** 382 nm

**Q.** What about the absorption maximum (in Cc1ccccc1) of the same compound?
**A.** 387 nm

**Q.** And the absorption maximum (in ClC(Cl)Cl)?
**A.** 383 nm

**Q.** And the absorption maximum (in ClCCl)?
**A.** 380 nm

**Q.** What does the source list for `CCCCCCCCN1c2ccc(C#Cc3ccc(OC)cc3)cc2Sc2cc(C=O)ccc21`?
**A.** absorption maximum (in C1CCOC1): 378 nm; absorption maximum (in CC#N): 380.01 nm; absorption maximum (in CCCCCC): 374 nm; absorption maximum (in CO): 351.11 nm; absorption maximum (in CS(C)=O): 383.45 nm; absorption maximum (in Cc1ccccc1): 383 nm; absorption maximum (in ClC(Cl)Cl): 382.5 nm

**Q.** With `c1ccc(-n2c3ccccc3c3cc(-n4ccc5cc(-c6cccc7c6-c6ccccc6C7(c6ccccc6)c6ccccc6)ccc54)ccc32)cc1` as the compound, how does the absorption maximum (in ClCCl) read?
**A.** 325 nm

**Q.** For `CN(C)c1ccc(-c2cc(-c3ccc(N(C)C)cc3)ncn2)cc1`, which absorption maximum (in ClCCl) is on record?
**A.** 378 nm

**Q.** For `Nc1n[n+]([O-])c2cc(F)ccc2[n+]1[O-]`, which absorption maximum (in CC#N) is on record?
**A.** 489 nm

**Q.** And the absorption maximum (in O)?
**A.** 468 nm
